pIC50: −log10 of the molar value.
Experiments:
[1] = test system: human peripheral blood CD4+ helper T cells; experiment: Pan-CD4+ T cell activation (off-target assay); format: cell-based; conditions: anti-CD3/anti-CD28 stimulation, IL-2 production by ELISA
Excerpt: The counter-screening was made through an HLA-DR-independent assay (Pan-CD4+ T cell activation assay), i.e., TCR-stimulated pan-T cell activation assay, and consists of activating T cell directly with agonistic antibody targeting the T cell receptor. The lack of inhibition in the counter-screening assay reflects that the inhibition of T cell activation in the HLA-DR4 restricted peptide-specific T cell based assay with the small molecule inhibitors is due to impaired antigen presentation on HLA-DR to the T cell and not due to a direct inhibition of the T cell function by an off-target mechanism (i.e., independently of targeting HLA-DR).
Pan-CD4+ T Cell Activation
Compounds were tested using a pan-T cell activation assay. In this assay, anti-human CD3 antibody (BD Pharmingen #55336) pre-coated at 1 μg/mL to a 96-well assay plate and 1 μg/ml soluble anti-human CD28 (EBioscience #16-0289-85) antibody were used for activating human peripheral blood CD4+ helper T cells (no HLA-DR-expressing APC were present in this assay format), in the presence of compounds (or vehicle control) for 24 hrs. IL-2 production was measured in the culture supernatant by ELISA (Human IL-2 Duo Set ELISA #DY202 from R&D Systems).

[2] = test system: HLA-DR4 restricted mouse T cell hybridoma line (DR4.CII.36.8) with HLA-DRB1*04:01-expressing Boleth cells; experiment: HLA-DR4-restricted peptide-specific T cell-based assay (hybridoma assay); conditions: 6 h, inhibition of IL-2 production, CII259-273 peptide presented by Boleth cells
Procedure, shortened: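 Boleth cells (HLA-DRB1*04:01 B cell line) pre-incubated with compound 1 h at 37° C. in DMEM/1% FCS, then DR4.CII.36.8 mouse T cell hybridoma (CII259-273-specific) added for 6 h with CII259-273 peptide. Supernatant mouse IL-2 by AlphaLISA; IC50 by 4-PL fit of 8-point duplicate titrations.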

[3] = biological target: HLA-DRB1*0401 (Homo sapiens (Human), UniProt P01903+P01911, A100K/A169T/DEL228-266/F76Y/I96L/K127E/L162R/M171V/N62H/P40V/Q125Y/R42H/S133A/S149N/S66Y/V115G/V209L/W38E); experiment: HLA-DR4 HTRF assay; format: binding; conditions: inhibition of loading of Alexa Fluor 647-labeled Cit-CII peptide onto HLA-DR4 (CLIP cleaved)
Procedure, shortened: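 HLA-DRB1*04:01 construct (α/β fused to human Fc, CLIP pre-cleaved by HRV3C overnight at 4° C) at 3 nM was preincubated 45 min with compound and 1 nM anti-Fc-Tb donor, then 40 nM Alexa647-Cit-CII1236-1249 peptide added. After 90 min at 37° C, the 665/620 nm HTRF ratio gave % inhibition; IC50 by nonlinear regression.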

| SMILES | pIC50 ([1]; Homo sapiens, T-cell, 24 h) | pIC50 ([2]; Mus musculus, T-cell) | pIC50 [3] | pIC50 ([1]; 24 hrs) | pIC50 [2] |
| --- | --- | --- | --- | --- | --- |
| NC(=O)c1ccc([C@@H](Oc2ccc3c(c2)OCCC3=O)c2ccccc2)cc1 (single isomer, unassigned) [Example 29b, (*S)-4-(((4-oxochroman-7-yl)oxy)(phenyl)methyl)benzamide] | < 4.82 | 5.30 | 6.02 | – | – |
| NC(=O)c1ccc([C@@H](Oc2ccc3c(c2)OCCC3=O)c2cccnc2)cc1 (single isomer, unassigned) [Example 31a, (*R)-4-(((4-oxochroman-7-yl)oxy)(pyridin-3-yl)methyl)benzamide] | 4.82 | 5.26 | 6.07 | – | – |
| NC(=O)c1ccc([C@@H](Oc2ccc3c(c2)OCCC3=O)c2cccnc2)cc1 (single isomer, unassigned) [Example 31b, (*S)-4-(((4-oxochroman-7-yl)oxy)(pyridin-3-yl)methyl)benzamide] | – | – | 6.19 | < 4.82 | 5.46 |
| CNC(=O)c1ccc([C@@H](Oc2ccc3c(c2)OCCC3=O)c2ccncc2)cc1 (single isomer, unassigned) [Example 34a, (*R)—N-methyl-4-(((4-oxochroman-7-yl)oxy)(pyridin-4-yl)methyl)benzamide] | 5.00 | 4.92 | 6.10 | – | – |
| CNC(=O)c1ccc([C@H](Oc2ccc3c(c2)OCCC3=O)c2ccncc2)cc1 (single isomer, unassigned) [Example 34b, (*S)—N-methyl-4-(((4-oxochroman-7-yl)oxy)(pyridin-4-yl)methyl)benzamide] | < 4.82 | < 4.82 | 6.16 | – | – |
| Cc1cc(C(N)=O)ccc1[C@H](Oc1ccc2c(c1)OCCC2=O)c1ccncc1 (single isomer, unassigned) [Example 36a, (*R)-3-methyl-4-(((4-oxochroman-7-yl)oxy)(pyridin-4-yl)methyl)benzamide] | 5.33 | 5.32 | 6.26 | – | – |
| N#Cc1ccc([C@H](Oc2ccc3c(c2)OCCC3=O)c2ccncc2)c2ccccc12 (single isomer, unassigned) [Example 37a, (*R)-4-(((4-oxochroman-7-yl)oxy)(pyridin-4-yl)methyl)-1-naphthonitrile] | 5.70 | 5.03 | 4.48 | – | – |
| N#Cc1ccc([C@@H](Oc2ccc3c(c2)OCCC3=O)c2ccncc2)c2ccccc12 (single isomer, unassigned) [Example 37b, (*S)-4-(((4-oxochroman-7-yl)oxy)(pyridin-4-yl)methyl)-1-naphthonitrile] | 5.00 | 5.29 | 4.62 | – | – |
| O=C1CCOc2cc(O[C@@H](c3ccncc3)C3CCCCC3)ccc21 (single isomer, unassigned) [Example 38a, (*R)-7-(cyclohexyl(pyridin-4-yl)methoxy)chroman-4-one] | 5.33 | 5.40 | 5.34 | – | – |
| O=C1CCOc2cc(O[C@H](c3ccncc3)C3CCCCC3)ccc21 (single isomer, unassigned) [Example 38b, (*S)-7-(cyclohexyl(pyridin-4-yl)methoxy)chroman-4-one] | < 4.82 | 5.26 | 5.39 | – | – |
| C[C@@H]1CC(=O)c2ccc(O[C@@H](c3ccncc3)c3ccc(C(N)=O)cc3)cc2O1 (single isomer, unassigned) [Example 39b, 4-((*R)—(((*R)-2-Methyl-4-oxochroman-7-yl)oxy)(pyridin-4-yl)methyl)benzamide] | 5.00 | 6.22 | 6.07 | – | – |
| C[C@H]1CC(=O)c2ccc(O[C@@H](c3ccncc3)c3ccc(C(N)=O)cc3)cc2O1 (single isomer, unassigned) [Example 39c, 4-((*R)—(((*S)-2-Methyl-4-oxochroman-7-yl)oxy)(pyridin-4-yl)methyl)benzamide] | 5.00 | 5.96 | 6.00 | – | – |
| CC[C@@H]1CC(=O)c2ccc(O[C@@H](c3ccncc3)c3ccc(C(N)=O)cc3)cc2O1 (single isomer, unassigned) [Example 40a, 4-((*R)—(((*R)-2-ethyl-4-oxochroman-7-yl)oxy)(pyridin-4-yl)methyl)benzamide] | 4.82 | 6.12 | 5.82 | – | – |
| CC[C@H]1CC(=O)c2ccc(O[C@@H](c3ccncc3)c3ccc(C(N)=O)cc3)cc2O1 (single isomer, unassigned) [Example 40b, 4-((*R)—(((*S)-2-ethyl-4-oxochroman-7-yl)oxy)(pyridin-4-yl)methyl)benzamide] | 4.82 | 6.00 | 5.89 | – | – |
| CC[C@H]1CC(=O)c2ccc(O[C@H](c3ccncc3)c3ccc(C(N)=O)cc3)cc2O1 (single isomer, unassigned) [Example 41b, 4-((*S)—(((*S)-2-ethyl-4-oxochroman-7-yl)oxy)(pyridin-4-yl)methyl)benzamide] | < 4.82 | 5.82 | 5.96 | – | – |
| NC(=O)c1ccc([C@H](Oc2ccc3c(c2)O[C@@H](c2ccccc2)CC3=O)c2ccncc2)cc1 (single isomer, unassigned) [Example 42a, 4-((*S)—(((*R)-4-oxo-2-phenylchroman-7-yl)oxy)(pyridin-4-yl)methyl)benzamide] | < 4.82 | 4.96 | 5.42 | – | – |
| NC(=O)c1ccc([C@H](Oc2ccc3c(c2)O[C@H](c2ccccc2)CC3=O)c2ccncc2)cc1 (single isomer, unassigned) [Example 42b, 4-((*S)—(((*S)-4-oxo-2-phenylchroman-7-yl)oxy)(pyridin-4-yl)methyl)benzamide] | 5.00 | 4.92 | 5.12 | – | – |
| NC(=O)c1ccc([C@@H](Oc2ccc3c(c2)O[C@@H](c2ccccc2)CC3=O)c2ccncc2)cc1 (single isomer, unassigned) [Example 43a, 4-((*R)—(((*R)-4-oxo-2-phenylchroman-7-yl)oxy)(pyridin-4-yl)methyl)benzamide] | 5.35 | 6.13 | 5.44 | – | – |
| NC(=O)c1ccc([C@@H](Oc2ccc3c(c2)O[C@H](c2ccccc2)CC3=O)c2ccncc2)cc1 (single isomer, unassigned) [Example 43b, 4-((*R)—(((*S)-4-oxo-2-phenylchroman-7-yl)oxy)(pyridin-4-yl)methyl)benzamide] | 5.00 | 6.20 | 5.31 | – | – |
| C[C@@H]1COc2cc(O[C@H](c3ccncc3)c3ccc(C(N)=O)cc3)ccc2C1=O (single isomer, unassigned) [Example 44a, 4-((*S)—(((*R)-3-Methyl-4-oxochroman-7-yl)oxy)(pyridin-4-yl)methyl)benzamide] | < 4.82 | 5.80 | 5.80 | – | – |
| C[C@@H]1COc2cc(O[C@@H](c3ccncc3)c3ccc(C(N)=O)cc3)ccc2C1=O (single isomer, unassigned) [Example 44b, 4-((*R)—(((*R)-3-Methyl-4-oxochroman-7-yl)oxy)(pyridin-4-yl)methyl)benzamide] | < 4.82 | 5.64 | 5.96 | – | – |
| CC[C@@H]1COc2cc(O[C@H](c3ccncc3)c3ccc(C(N)=O)cc3)ccc2C1=O (single isomer, unassigned) [Example 45a, 4-((*S)—(((*R)-3-ethyl-4-oxochroman-7-yl)oxy)(pyridin-4-yl)methyl)benzamide] | < 4.82 | 5.47 | 5.96 | – | – |

From patent publication US12516038B2, “Inhibitors of antigen presentation by HLA-DR” (Janssen Pharmaceutica NV, priority 2020, dated 2026)
